According to patent US8436007B2, “Inhibitors of protein kinases” (Ingenium Pharmaceuticals GmbH, priority 2007, dated 2013):
“Also recorded” adds a separate entry of the source.

What was measured:
[1] = tested on: IL6 expression in LPS induced THP-1 macrophages; experiment: In vitro THP-1 assay: IL6 expression in LPS-induced THP-1 macrophages (ELISA of supernatant); assay type: cell-based, human; settings: differentiated THP-1 cells, 60 min pre-incubation with compound (0.5 to 5 μM), 100 ng/ml LPS for 4-48 h, triplicates
Experimental: (§1) The human THP-1 cell line can be utilized as an in vitro model of cytokine expression as mediated by Lipopolysaccharide (LPS) or Tumor Necrosis Factorα [TNFα]. Monocytic THP-1 cells (ATCC; TIB-202) can be differentiated into macrophage-like cells expressing pro-inflammatory cytokines like TNFα, IL6 and IL1β upon induction with LPS or by TNFα (autocrine induction) itself. THP-1 cells are grown in modified RPMI-1640 medium (ATCC, Cat. No. 30-2001) supplemented with 10% FCS and 1% Pen/Strep. For cytokine inhibition assays, cells are seeded at a density of 5×10^5 cells/ml into 6-well plates in standard growth medium supplemented with 100 ng/ml PMA (Sigma, P1585) to induce differentiation into macrophage-like cells. After 24 hours, the medium is replaced with standard growth medium (without PMA) and the cells are incubated for another 48 hours to complete differentiation. After 72 h of differentiation, the medium is replaced with serum free growth medium, and CDK-inhibiting compounds as well as reference compounds such as positive and negative controls, each dissolved in DMSO are added at concentrations ranging from 0.5 to 5 μM (final concentration of DMSO in the well is 0.1%). Cells are incubated for 60 min with compounds prior to stimulation with 100 ng/ml LPS (Sigma, L2630) for another 4-48 hours. Supernatants are collected and assayed immediately for cytokine expression, e.g. for TNFα, IL-6 and IL-1b using commercially available sandwich ELISA assays (eBioscience, Cat. No 88-7346, 88-7066, 88-7010) or kept frozen at […] until evaluation. Concentrations of TNFα, IL6 and IL1β within the cell culture supernatants are measured by using commercial ELISA Kits (eBioscience) according to the manufacturers' instructions. CDK-inhibitory compounds #1, 5, 6, 8, and 9 were administered at to differentiated THP-1 cells in triplicates as described above (see section 2.). After 60 min of pre-incubation with test or reference compound (SB203580, a p38 inhibitor and BMS345541, an IKK-inhibitor) alone, cells were stimulated with LPS. After incubation for 4-48 h, supernatants were collected and ELISA based determinations of cytokine supernatant concentrations were performed as described in section 3, supra.

[2] = tested on: TNFα expression in LPS induced THP-1 macrophages; experiment: In vitro THP-1 assay: TNFα expression in LPS-induced THP-1 macrophages (ELISA of supernatant); assay type: cell-based, human; settings: differentiated THP-1 cells, 60 min pre-incubation with compound (0.5 to 5 μM), 100 ng/ml LPS for 4-48 h, triplicates
Experimental: as §1

SMILES | inhibition of IL6 protein concentration in the cell supernatant compared to vehicle (DMSO) [1] | inhibition of TNFα expression / protein concentration in the cell supernatant compared to vehicle (DMSO) [2]
COc1ccccc1-c1ccnc(Nc2cccc(CS(=O)(=O)NC3CC3)c2)n1 [Compound 6, N-Cyclopropyl-C-{3-[4-(2-methoxy-phenyl)-pyrimidin-2-ylamino]-phenyl}-methanesulfonamide] | significant inhibitory effect | significant inhibitory effect; also recorded: significant inhibition
COc1ccccc1-c1ccnc(Nc2cccc(CS(N)(=O)=O)c2)n1 [Compound 1, {3-[4-(2-Methoxy-phenyl)-pyrimidin-2-ylamino]-phenyl}-methanesulfonamide] | significant inhibitory effect | significant inhibitory effect; also recorded: significant inhibition
COc1cc(F)ccc1-c1ccnc(Nc2cccc(CS(N)(=O)=O)c2)n1 [Compound 5, {3-[4-(4-Fluoro-2-methoxy-phenyl)-pyrimidin-2-ylamino]-phenyl}-methanesulfonamide] | significant inhibitory effect | significant inhibitory effect; also recorded: significant inhibition
COc1ccccc1-c1ccnc(Nc2cccc(CS(=O)(=O)CCO)c2)n1 [Compound 9, 2-{3-[4-(2-Methoxy-phenyl)-pyrimidin-2-ylamino]-phenylmethanesulfonyl}-ethanol] | significant inhibitory effect | significant inhibitory effect; also recorded: significant inhibition
COc1ccccc1-c1ccnc(Nc2cccc(CS(=O)(=O)N(C)CCO)c2)n1 [Compound 8, N-(2-Hydroxy-ethyl)-C-{3-[4-(2-methoxy-phenyl)-pyrimidin-2-ylamino]-phenyl}-N-methyl-methanesulfonamide] | significant inhibitory effect | significant inhibitory effect; also recorded: significant inhibition
